Consider 20 compounds from ChEMBL document CHEMBL1134884, “Novel indolo[2,1-b]quinazoline analogues as cytostatic agents: synthesis, biological evaluation and structure-activity relationship” (Bioorg Med Chem Lett, 2002).

Format in all cases: functional
One test deals with NCI/ADR-RES. Kind of test: Tested for in vitro cytotoxic activity against breast MCF-7/ADR human cancer cell lines.
The next test concerns M14. In words: Tested for in vitro cytotoxic activity against melanoma M14 human cancer cell lines.
A further test concerns NCI-H522. In words: Tested for in vitro cytotoxic activity against lung H522 human cancer cell lines.
The next test concerns DU-145. In words: Tested for in vitro cytotoxic activity against prostate DU145 human cancer cell lines.
For the next test, the system named is A498. Kind of test: Tested for in vitro cytotoxic activity against renal A498 human cancer cell lines.
The subject of another test is SK-OV-3. Kind of test: Tested for in vitro cytotoxic activity against ovarian SKOV3 human cancer cell lines.
The subject of another test is SW-620. Kind of test: Tested for in vitro cytotoxic activity against colon SW620 human cancer cell lines.
The test system of another test is U-251. In words: Tested for in vitro cytotoxic activity against CNS U251 human cancer cell lines.

Where only a bound is given, the exact number is not on record here.

Usually GI50 stands for the concentration giving 50% growth inhibition. In the case of `O=c1c2ccccc2nc2n1-c1ccccc1/C2=N\OCCO`, the 50% growth inhibitory concentration (GI50) in the test with NCI/ADR-RES was 0.01 µM; in the test with M14, 30 µM; in the test with NCI-H522 it was 7 µM; with DU-145, 3 µM; in the test with A498, 40 µM; with SK-OV-3, 20 µM. The 50% growth inhibitory concentration (GI50) in the test on SW-620 is 20 µM; in the test with U-251 it was 1 µM.
Consider `O=c1c2ccccc2nc2n1-c1ccccc1C2(O)OCCOc1ccccc1` (stereo not given), for which the GI50 in the test with NCI/ADR-RES, in the test on M14, with NCI-H522, in the test on DU-145, in the test on A498 and in the test with SK-OV-3 was more than 100 µM throughout. Moreover, the concentration for 50% growth inhibition (GI50) with SW-620 and in the test on U-251 was more than 100 µM in each case.
Turning to `COc1cc2nc3n(c(=O)c2cc1OC)-c1ccccc1C3=O`, the 50% growth inhibitory concentration (GI50) in the test with NCI/ADR-RES, with M14, in the test with NCI-H522, with DU-145, with A498 and with SK-OV-3 was more than 100 µM in each case. Besides, the GI50 in the test on SW-620 and in the test on U-251 was more than 100 µM each time.
With `CN(C)CCO/N=C1\c2cc(Br)ccc2-n2c1nc1ccccc1c2=O`, the GI50 in the test with NCI/ADR-RES was found to be 0.06 µM; with M14 it was 2 µM; with NCI-H522 it was 2 µM; in the test on DU-145, 0.2 µM; in the test with A498, 1.5 µM; with SK-OV-3, 3 µM. Also, the 50% growth inhibitory concentration (GI50) turned out to be 3 µM in the test with SW-620 and 0.45 µM in the test on U-251.
As for `O=C(CCl)Nc1ccc2c(c1)C(=O)c1nc3ccccc3c(=O)n1-2`, the 50% growth inhibitory concentration (GI50) in the test on NCI/ADR-RES was found to be 0.06 µM; with M14, 0.9 µM; with NCI-H522 it was 4 µM; in the test with DU-145, 0.25 µM; in the test with A498, 0.4 µM; with SK-OV-3 it was 0.05 µM. The GI50 worked out at 0.6 µM with SW-620 and 0.2 µM in the test on U-251.
Consider `O=C1c2ccccc2-n2c1nc1ccccc1c2=O` [TRYPTANTHRIN], for which the GI50 in the test on NCI/ADR-RES came out at 30 µM; with M14, 15 µM; in the test with NCI-H522, 15 µM; in the test with DU-145, 0.4 µM; in the test with A498, 0.95 µM; in the test with SK-OV-3 it was 2.5 µM. Moreover, the concentration for 50% growth inhibition (GI50) in the test with SW-620 came out at 5 µM; in the test with U-251, 100 µM.
Regarding `CCC(=O)Nc1ccc2c(c1)C(=O)c1nc3ccccc3c(=O)n1-2`, the GI50 in the test with NCI/ADR-RES amounted to 20 µM; in the test on M14, 10 µM; in the test with NCI-H522, 18 µM; in the test on DU-145 it was 10 µM; in the test with A498, 7 µM; with SK-OV-3 it was 8 µM. Also, the GI50 in the test on SW-620 is 22 µM; with U-251 it was more than 100 µM.
As for `O=C(CO/N=C1\c2ccccc2-n2c1nc1ccccc1c2=O)Nc1ccccn1`, the GI50 with NCI/ADR-RES came to 8 µM; in the test with M14, 95 µM; with NCI-H522, 25 µM; in the test with DU-145 it was 10 µM; with A498, 20 µM; in the test with SK-OV-3, 52 µM. Also, the GI50 in the test with SW-620 was more than 100 µM; in the test on U-251, 8.5 µM.
Turning to `O=C1c2cc3c(cc2-n2c1nc1ccccc1c2=O)OCO3`, the 50% growth inhibitory concentration (GI50) with NCI/ADR-RES, in the test with M14, in the test on NCI-H522, in the test with DU-145, in the test with A498 and with SK-OV-3 was more than 100 µM in each case. The GI50 in the test with SW-620 and with U-251 was more than 100 µM in each case.
For the compound `O=c1c2ccccc2nc2n1-c1ccc([N+](=O)[O-])cc1/C2=N\OCCO`, the GI50 was 0.4 µM in the test on NCI/ADR-RES; 2 µM in the test with M14; 0.7 µM in the test on NCI-H522; 2.5 µM in the test on DU-145; 0.6 µM in the test with A498; 2 µM in the test with SK-OV-3. The results for the 50% growth inhibitory concentration (GI50) with SW-620 and with U-251 were 0.75 µM and 0.8 µM, respectively.
On to `Cc1ccc2c(c1)C(=O)c1nc3ccccc3c(=O)n1-2`, for which the GI50 is 0.1 µM in the test with NCI/ADR-RES; 60 µM in the test with M14; 0.15 µM with NCI-H522; more than 100 µM with DU-145; 60 µM in the test on A498; more than 100 µM in the test on SK-OV-3. Besides, the GI50 was more than 100 µM in the test with SW-620 and 20 µM with U-251.
In the case of `CCCC(=O)Nc1ccc2c(c1)C(=O)c1nc3ccccc3c(=O)n1-2`, the concentration for 50% growth inhibition (GI50) amounted to 10 µM in the test with NCI/ADR-RES; 18.5 µM in the test with M14; 18.2 µM with NCI-H522; 20 µM with DU-145; 20 µM in the test on A498; 6 µM in the test with SK-OV-3. Also, the GI50 worked out at 10.5 µM in the test with SW-620 and 12 µM with U-251.
In the case of `O=c1c2ccccc2nc2n1-c1ccccc1/C2=N\OCCCN1CCCC1`, the 50% growth inhibitory concentration (GI50) came out at 5 µM with NCI/ADR-RES; 6 µM with M14; 4 µM with NCI-H522; 5 µM in the test with DU-145; 7 µM in the test with A498; 4 µM with SK-OV-3. For the same compound, the concentration for 50% growth inhibition (GI50) turned out to be 4.5 µM in the test on SW-620 and 6 µM in the test on U-251.
On to `O=Nc1c2ccccc2n2c(O)c3ccccc3nc12`, for which the GI50 in the test with NCI/ADR-RES came to 15 µM; in the test on M14, 40 µM; in the test on NCI-H522, 50 µM; in the test with DU-145, 50 µM; with A498, 60 µM; with SK-OV-3, 30 µM. The concentration for 50% growth inhibition (GI50) in the test with SW-620 turned out to be 8 µM; with U-251, 15 µM.
In the case of `Nc1ccc2nc3n(c(=O)c2c1)-c1ccccc1C3=O`, the 50% growth inhibitory concentration (GI50) in the test with NCI/ADR-RES was found to be 40 µM; in the test with M14, 60 µM; in the test on NCI-H522 it was 60 µM; with DU-145, 60 µM; in the test on A498, 80 µM; in the test on SK-OV-3, 40 µM. Also, the values for the GI50 with SW-620 and in the test with U-251 were 60 µM and 70 µM, respectively.
Consider `O=C(/C=C/c1ccccc1)O/N=C1\c2ccccc2-n2c1nc1ccccc1c2=O`, for which the GI50 in the test with NCI/ADR-RES is 7.5 µM; with M14, 90 µM; in the test on NCI-H522, 45 µM; in the test with DU-145 it was more than 100 µM; with A498, 10 µM; with SK-OV-3 it was 6 µM. Besides, the GI50 was determined as 60 µM in the test with SW-620 and 20 µM with U-251.
Regarding `CS(=O)(=O)Nc1ccc2c(c1)C(=O)c1nc3ccccc3c(=O)n1-2`, the GI50 in the test on NCI/ADR-RES, with M14, in the test on NCI-H522, with DU-145, in the test with A498 and with SK-OV-3 was more than 100 µM each time. For the same compound, the GI50 in the test with SW-620 and in the test on U-251 was more than 100 µM each time.
`O=C1c2cc([N+](=O)[O-])ccc2-n2c1nc1ccccc1c2=O`: the GI50 in the test with NCI/ADR-RES turned out to be 1 µM; in the test on M14, 15 µM; in the test on NCI-H522 it was 4.8 µM; in the test on DU-145, 8 µM; in the test on A498, 2 µM; in the test with SK-OV-3, 25 µM. In addition, the values for the GI50 in the test with SW-620 and in the test on U-251 were 25 µM and 4.5 µM, respectively.
Regarding `CN1CCN(CC(=O)Nc2ccc3c(c2)C(=O)c2nc4ccccc4c(=O)n2-3)CC1`, the 50% growth inhibitory concentration (GI50) turned out to be 20 µM with NCI/ADR-RES; 8 µM in the test on M14; 15 µM with NCI-H522; 10 µM in the test with DU-145; 20 µM in the test on A498; 6 µM in the test on SK-OV-3. The concentration for 50% growth inhibition (GI50) in the test on SW-620 is 10 µM; in the test on U-251, more than 100 µM.
Regarding `C=CC1(O)c2ccccc2-n2c1nc1ccccc1c2=O` (stereo not given), the concentration for 50% growth inhibition (GI50) with NCI/ADR-RES was 20 µM; in the test on M14, 8 µM; with NCI-H522 it was 15 µM; with DU-145, 10 µM; in the test with A498, 12 µM; in the test on SK-OV-3, 6 µM. Besides, the values for the GI50 with SW-620 and in the test on U-251 were 10 µM and 12 µM, respectively.
